PMC4450091 (JOM (Warrendale, Pa. : 1989), 2015)
Where no end group is shown, it is not given here.

Key:
[1] = system: Escherichia coli ATCC 2592; assay type: cell-based; conditions: ATCC 2592, 24 h
[2] = system: Streptococcus mutans ATCC 25175; assay type: cell-based; conditions: ATCC 25175, 24 h

Sequence | Minimum inhibitory concentration (MIC), E. coli [1] | Minimum inhibitory concentration (MIC), S. mutans [2]
HAYKQPVLSTPFGGGKWKRWWWWR [TiBPS3-AMP2] | 167.4 µM | –
RPRENRGRERGLGGGKWKRWWWWR [TiBPS1-AMP2] | 80.8 µM | –
SRPNGYGGSESSGGGLKLLKKLLKLLKKL [TiBPS2-AMP1] | – | 336.5 µM
